Legend:
[1] = test system: LNCaP/AR-luc xenograft tumors; assay: luciferase-imaging of LNCaP/AR-luc xenograft tumors in castrate male mice; conditions: 10 mg/kg/day oral, 17 days
[2] = test system: PC-3 prostate cancer cells; assay: growth of AR-negative PC-3 cells
LNCaP/AR tumors = assay: Ki67 IHC and TUNEL-staining of LNCaP/AR tumor-tissue from castrate mice; conditions: 10 mg/kg/day, 25d
AR = AR binding-assay using MDA-MB-453 cell-extracts
[3] = test system: LNCaP/AR(cs) xenograft tumors; assay: LNCaP/AR; conditions: for tumors with >50% regression (volume): 10 mg/kg/day daily-gavage
[4] = steady-state plasma and tumor-tissue concentrations in LNCaP/AR; conditions: for Plasma C24hr / Tumor C24hr: 28d dosing, mean ± SD; for Plasma C24hr: 24h after final dose; for Tumor C24hr: LNCaP/AR(cs) xenograft tumor-tissue; for Kp: mouse, tumor, oral
LNCaP/AR(cs) xenografts = assay: LNCaP/AR; conditions: 28d, intact (non-castrate) mice
[5] = steady-state plasma- and brain-tissue levels in mice; conditions: 10 mg/kg/day; for Brain C24hr / Plasma C24hr: 28d daily-dosing; for Brain C24hr: 24h after final-dose; for Plasma C24hr: 24h after final-dose (brain study); for Kp: mouse, brain
prostate and epididymis = conditions: 10 mg/kg/day for 28 days
VCaP cells = assay: VCaP proliferation assay; conditions: 7d treatment; for VCaP proliferation, antagonist-mode: with 30pM R1881; for VCaP proliferation, agonist-mode: without R1881
AR-regulated genes = assay: qRT-PCR analysis of AR-regulated genes in LNCaP/AR; conditions: absence of R1881; up to 10 μM
CRPC [6] = conditions: plus prednisone; CRPC patients previously treated with docetaxel; cited from earlier work
CRPC [7] = conditions: chemotherapy-naïve and -treated CRPC patients; cited from earlier work

CNC(=O)c1ccc(N2C(=S)N(c3cnc(C#N)c(C(F)(F)F)c3)C(=O)C23CCC3)cc1F [ARN-509]
androgen-driven luciferase reporter-gene activity normalized to tumor volume, vs vehicle [1]: consistently reduced
effect on growth of AR-negative PC-3 cells [2]: no significant effect on growth
increase in apoptotic rate (TUNEL) versus vehicle (LNCaP/AR tumors): 10 fold
AR binding in cell-extracts, ARN-509 vs bicalutamide (AR): does not differentiate between ARN-509 and bicalutamide
tumors with >50% regression (volume) ([3]; day 28, castrate mice): 8/10
tumors no longer palpable ([3]; 10 mg/kg/day, day 28, of 10 tumors): 2
animals with >50% reduction in tumor-volume ([3]; 100 mg/kg/day, day 28, castrate mice): 13/19
optimal biological dose (OBD: lowest dose yielding maximum efficacy) ([3]; LNCaP/AR model): 10–30 mg/kg/day
oral bioavailability (mouse pharmacokinetics): high
plasma half-life (mouse pharmacokinetics): long
Plasma C24hr ([4]; 1 mg/kg/day): 0.425 ± 0.16 µg/mL
Tumor C24hr ([4]; 1 mg/kg/day): 0.991 ± 0.30 µg/g
Plasma C24hr ([4]; 10 mg/kg/day): 3.31 ± 0.98 µg/mL
Tumor C24hr ([4]; 10 mg/kg/day): 3.26 ± 0.82 µg/g
Kp ([4]; 1 mg/kg/day): 2.59 ± 0.11
Kp ([4]; 10 mg/kg/day): 1.07 ± 0.44
anti-tumor effect (LNCaP/AR(cs) xenografts; 10 mg/kg/day): largely confined to stabilization of tumor-growth
animals with robust tumor-regression (>50% reduction in starting tumor volume) (LNCaP/AR(cs) xenografts; 30 mg/kg/day): 6/8
Brain C24hr [5]: 0.479 ± 0.132 µg/g
Plasma C24hr [5]: 1.64 ± 0.30 µg/mL
Kp [5]: 0.293 ± 0.063
apoptotic-rate in dog prostates (TUNEL-staining) (prostate and epididymis): no change in apoptotic-rate
epididymis histopathology / spermatozoa (prostate and epididymis): contained minimal spermatozoa
prostate histopathology (prostate and epididymis): lack of glandular secretory activity
reduction in epididymis weight (prostate and epididymis; not statistically significant): 1.7 fold
reduction in weight of dog prostates (prostate and epididymis; p<0.05 vs vehicle): 3 fold
oral bioavailability (dog pharmacokinetics): high
plasma half-life (dog pharmacokinetics): long
VCaP proliferation, antagonist-mode (VCaP cells): antagonized the proliferative effect of R1881
VCaP proliferation, agonist-mode (VCaP cells): fails to stimulate proliferation
agonist activity on AR-regulated gene expression (AR-regulated genes): did not exhibit agonist activity

CC(O)(CS(=O)(=O)c1ccc(F)cc1)C(=O)Nc1ccc(C#N)c(C(F)(F)F)c1 (stereo not drawn) [bicalutamide, reference compound]
tumors with >50% regression (volume) ([3]; day 28, castrate mice): 1/10
VCaP proliferation, antagonist-mode (VCaP cells): only partially antagonized the effects of R1881
VCaP proliferation, agonist-mode (VCaP cells): induced cell-proliferation in a dose-dependent manner
agonist activity on AR-regulated gene expression (AR-regulated genes): altered gene-expression consistent with its well-documented agonist activity

CC(=O)O[C@H]1CC[C@@]2(C)C(=CC[C@@H]3[C@@H]2CC[C@]2(C)C(c4cccnc4)=CC[C@@H]32)C1 [abiraterone acetate]
increase in overall survival over control (prednisone only) (CRPC [6]): 3.9 months

CNC(=O)c1ccc(N2C(=S)N(c3ccc(C#N)c(C(F)(F)F)c3)C(=O)C2(C)C)cc1F [MDV3100, reference compound]
animals with >50% reduction in tumor-volume ([3]; 30 mg/kg/day, day 28, castrate mice): 3 of 19
animals with >50% reduction in tumor-volume ([3]; mouse, in vivo): 12/19
optimal biological dose (OBD: lowest dose yielding maximum efficacy) ([3]; mouse, in vivo): 30–100 mg/kg/day
Plasma C24hr ([4]; 1 mg/kg/day): 1.08 ± 0.26 µg/mL
Tumor C24hr ([4]; 1 mg/kg/day): 0.439 ± 0.12 µg/g
Plasma C24hr ([4]; 10 mg/kg/day): 11.0 ± 2.5 µg/mL
Tumor C24hr ([4]; 10 mg/kg/day): 3.39 ± 1.50 µg/g
Brain C24hr [5]: 2.01 ± 0.83 µg/g
Plasma C24hr [5]: 10.5 ± 2.3 µg/mL
Kp [5]: 0.188 ± 0.044
patients with significant serum-PSA responses (>50% decrease) (CRPC [7]): > 50%
agonist activity on AR-regulated gene expression (AR-regulated genes): did not exhibit agonist activity

Reference: paper PMC3306502 (Cancer research, 2012)
